{
  "source": "patent US12274684B2",
  "about": "“Treatment of vasculopathy with prostacyclin and mesenchymal stem cells” (United Therapeutics Corporation, priority 2013, dated 2025)",
  "type_in_all_cases": "cell-based",
  "key": {"[1]": {"tested_on": "human bone marrow mesenchymal stem cells (BM-MSC)", "test": "VEGF secretion by MSC, ELISA of conditioned media", "protocol": "A single vial of human bone marrow-derived MSC was expanded and seeded into twenty (20) wells of 6-well plates using standard growth medium. At 95-99% confluency, cells were thoroughly washed with phosphate-buffered saline (PBS). Cells were then exposed to media containing 0, 0.1, 1.0, 10, or 100 μg/mL of treprostinil (n=4 wells for each concentration). After 24 hours of culture, the conditioned media was collected from each replicate and analyzed for Vascular Endothelial Growth Factor (VEGF) protein by enzyme-linked immunosorbent assay (ELISA). The goal of this experiment was to determine the optimal concentration of treprostinil needed to elicit a cellular response in MSC (using VEGF as a read out). A follow-up experiment to Example 1 was conducted to determine if treprostinil concentrations above 100 μg/mL affected MSC secretion of VEGF. As before, a single vial (same lot/batch) of bone marrow-derived MSC was expanded to thirty (30) wells of 6-well plates using standard growth medium. At 95-99% confluency, cells were thoroughly washed with PBS. Cells were then exposed to media containing 0, 100, 200, 300, or 400 μg/mL of treprostinil (n=6 wells for each concentration). Conditioned media was assayed for VEGF by ELISA after 24 hours of treprostinil exposure (n=4 replicates). Cells from those replicates were lysed, and RNA was extracted to determine VEGF-A gene expression by qRT-PCR. Cells from the remaining two (2) replicates were trypsinized, and assayed for cell viability by trypan blue exclusion. Cell culture supernatant was assayed for VEGF protein by ELISA (FIG. 3A, n=4). Cell lysates from those cultures were assayed for VEGF-A gene expression by qRT-PCR, and normalized to the control value (FIG. 3B, n=4). In both figures, error bars represent the standard deviation in each test group."}, "[2]": {"tested_on": "human bone marrow MSC", "test": "VEGF-A gene expression in MSC by qRT-PCR", "protocol": "Conditioned media was assayed for VEGF by ELISA after 24 hours of treprostinil exposure (n=4 replicates). Cells from those replicates were lysed, and RNA was extracted to determine VEGF-A gene expression by qRT-PCR. Cells from the remaining two (2) replicates were trypsinized, and assayed for cell viability by trypan blue exclusion. Cell culture supernatant was assayed for VEGF protein by ELISA (FIG. 3A, n=4). Cell lysates from those cultures were assayed for VEGF-A gene expression by qRT-PCR, and normalized to the control value (FIG. 3B, n=4). In both figures, error bars represent the standard deviation in each test group. To characterize the effect of treprostinil on MSC, cells were analyzed by qRT-PCR and microarray to identify changes in gene expression (4). Cell culture supernatant media was assayed for selected inflammatory cytokines by bead-based immunoassays (2). Secreted vesicles were isolated from cell culture supernatant, and assayed for RNA content by qRT-PCR (7). Vesicles were also assayed for size and concentration by tunable resistive pulse sensing, or TRPS (7) (refer to Example 4)."}, "[3]": {"tested_on": "human bone marrow MSC", "test": "RNA content of MSC-derived exosomes by qRT-PCR", "conditions": "250 μg/mL", "protocol": "After 24 hours of culture, representative images were captured from (+) Tre and (−) Tre cultures. Conditioned media was collected from each replicate, divided into two samples of appropriate volumes, and analyzed separately for: 1) secreted proteins (Myriad RBM InflammationMAP® 1.0) and 2) exosome RNA content. Cells were lysed directly from culture flasks, processed for total RNA isolation, and analyzed for gene expression by microarray (Illumina Human HT12 Expression BeadChip). To characterize the effect of treprostinil on MSC, cells were analyzed by qRT-PCR and microarray to identify changes in gene expression (4). Cell culture supernatant media was assayed for selected inflammatory cytokines by bead-based immunoassays (2). Secreted vesicles were isolated from cell culture supernatant, and assayed for RNA content by qRT-PCR (7). Vesicles were also assayed for size and concentration by tunable resistive pulse sensing, or TRPS (7) (refer to Example 4). Total RNA was extracted from exosomal preparations, and qRT-PCR was performed with the same primer/probe sets used in experiments with the parent cells (refer to FIG. 8). VEGF-A gene transcripts present in MSC-derived exosomes were increased ˜4-fold as a result of treprostinil exposure (FIG. 10)."}, "[4]": {"conditions": "24 h (FIG. 8, lower panel), p<0.05"}},
  "note": "“Also recorded” adds a separate entry of the source.",
  "data": [
    {"smiles": "CCCCC[C@H](O)CC[C@@H]1[C@H]2Cc3cccc(OCC(=O)O)c3C[C@H]2C[C@H]1O", "note": "[treprostinil]", "values": [
      {"measurement": "VEGF secretion, fold increase vs untreated controls", "setting": "[1]; 100 μg/mL, 24 h (Example 2)", "result": "~2", "unit": "fold"},
      {"measurement": "VEGF secretion, fold of control values", "setting": "[1]; 200 μg/mL, 24 h (Example 2)", "result": 3, "unit": "fold"},
      {"measurement": "VEGF secretion (ELISA)", "setting": "[1]; 0.1, 1.0, 10, 100 μg/mL, 24 h, vs 0 μg/mL (Example 1, FIG. 2)", "result": "no statistically significant differences; also recorded: slight trend of increased VEGF secretion"},
      {"measurement": "VEGF secretion at higher concentrations", "setting": "[1]; above 200 μg/mL (300, 400 μg/mL), 24 h", "result": "did not increase above this value"},
      {"measurement": "VEGF-A gene expression vs untreated controls", "setting": "[2]; 100 μg/mL, 24 h", "result": "not significantly different from untreated controls"},
      {"measurement": "VEGF-A gene expression, fold increase", "setting": "[2]; 200 μg/mL, 24 h", "result": "over 5 fold"},
      {"measurement": "VEGF-A expression, fold over untreated controls (qRT-PCR)", "setting": "[2]; 250 μg/mL, 24 h (FIG. 8, upper panel)", "result": "~3.5", "unit": "fold"},
      {"measurement": "let-7b abundance vs controls", "setting": "[3]; [4]", "result": "less prevalent"},
      {"measurement": "miR-21 abundance vs controls", "setting": "[3]; [4]", "result": "more abundant"},
      {"measurement": "VEGF-A gene transcripts in MSC-derived exosomes, fold increase", "setting": "[3]; 24 h (FIG. 10)", "result": "~4", "unit": "fold"},
      {"measurement": "miR-21 in MSC-derived exosomes", "setting": "[3]; 24 h (FIG. 10), p<0.05", "result": "significantly more abundant"},
      {"measurement": "miR-199-3p in MSC-derived exosomes", "setting": "[3]; 24 h (FIG. 10), p<0.05", "result": "significantly more abundant"}
    ]}
  ]
}
